Measured values published in BindingDB's records for doi:10.1016/s0960-894x(98)00132-2 (Green Cross Research Laboratories, 1999).

target: Chymotrypsinogen A (Bos taurus) (UniProt P00766); assay: Compound was evaluated for inhibitory activity against Bovine Chymotrypsinogen

Structure (SMILES) | Ki [µM]
CC(C)(C)OC(=O)NC(CCC(=O)O)C(=O)N1CCC[C@H]1C(=O)NC(Cc1ccccc1)C(=O)C(F)(F)C(=O)Nc1cc(C(=O)O)cs1 (stereo partly drawn) [5-(4-{[(S)-1-(2-tert-Butoxycarbonylamino-4-carboxy-butyryl)-pyrrolidine-2-carbonyl]-amino}-2,2-difluoro-3-oxo-5-phenyl-pentanoylamino)-thiophene-3-carboxylic acid] | > 100
CC(C)(C)OC(=O)NC(CCC(=O)O)C(=O)N1CCC[C@H]1C(=O)NC(Cc1ccccc1)C(=O)C(F)(F)C(=O)Nc1cccc(CC(=O)O)c1 (stereo partly drawn) [5-{(S)-2-[1-Benzyl-3-(3-carboxymethyl-phenylcarbamoyl)-3,3-difluoro-2-oxo-propylcarbamoyl]-pyrrolidin-1-yl}-4-tert-butoxycarbonylamino-5-oxo-pentanoic acid] | 3.95
CC(C)(C)OC(=O)NC(CCC(=O)O)C(=O)N1CCC[C@H]1C(=O)NC(Cc1ccccc1)C(=O)C(F)(F)C(=O)Nc1cccc(C(=O)O)c1 (stereo partly drawn) [3-(4-{[(S)-1-(2-tert-Butoxycarbonylamino-4-carboxy-butyryl)-pyrrolidine-2-carbonyl]-amino}-2,2-difluoro-3-oxo-5-phenyl-pentanoylamino)-benzoic acid] | 1.3
CC(C)(C)OC(=O)NC(CCC(=O)O)C(=O)N1CCC[C@H]1C(=O)NC(Cc1ccccc1)C(=O)C(F)(F)C(=O)Nc1cccc(C(N)=O)c1 (stereo partly drawn) [5-{(S)-2-[1-Benzyl-3-(3-carbamoyl-phenylcarbamoyl)-3,3-difluoro-2-oxo-propylcarbamoyl]-pyrrolidin-1-yl}-4-tert-butoxycarbonylamino-5-oxo-pentanoic acid] | 1.22
CC(C)(C)OC(=O)NC(CC(=O)O)C(=O)N1CCC[C@H]1C(=O)NC(Cc1ccccc1)C(=O)C(F)(F)C(=O)Nc1cccc(C(=O)O)c1 (stereo partly drawn) [3-(4-{[(S)-1-(2-tert-Butoxycarbonylamino-3-carboxy-propionyl)-pyrrolidine-2-carbonyl]-amino}-2,2-difluoro-3-oxo-5-phenyl-pentanoylamino)-benzoic acid] | > 100
CC(C)(C)OC(=O)NC(CCC(=O)O)C(=O)N1CCC[C@H]1C(=O)NC(Cc1ccccc1)C(=O)C(F)(F)C(=O)Nc1cccc(S(N)(=O)=O)c1 (stereo partly drawn) [5-{(S)-2-[1-Benzyl-3,3-difluoro-2-oxo-3-(3-sulfamoyl-phenylcarbamoyl)-propylcarbamoyl]-pyrrolidin-1-yl}-4-tert-butoxycarbonylamino-5-oxo-pentanoic acid] | 1.03
